We go through two compounds from patent US5478845A, “Piperidine derivatives” (Novo Nordisk A/S, priority 1993, dated 1995).

Molecules are shown by their SMILES. Where a name gives a salt, the structure may show the parent alone.

Parameters in all cases: species or system Male Wistar rats
The target in one test is T1, DOPAMINE D2 Receptor (Rattus norvegicus, UniProt P61169).
T1 construct: Male Wistar rats, 150-200 g are decapitated, striatum is removed quickly and weighed; from tissue; host or cells: rat striatum membrane fragments
T1 sequence (P61169 whole entry, the tested form may be a part): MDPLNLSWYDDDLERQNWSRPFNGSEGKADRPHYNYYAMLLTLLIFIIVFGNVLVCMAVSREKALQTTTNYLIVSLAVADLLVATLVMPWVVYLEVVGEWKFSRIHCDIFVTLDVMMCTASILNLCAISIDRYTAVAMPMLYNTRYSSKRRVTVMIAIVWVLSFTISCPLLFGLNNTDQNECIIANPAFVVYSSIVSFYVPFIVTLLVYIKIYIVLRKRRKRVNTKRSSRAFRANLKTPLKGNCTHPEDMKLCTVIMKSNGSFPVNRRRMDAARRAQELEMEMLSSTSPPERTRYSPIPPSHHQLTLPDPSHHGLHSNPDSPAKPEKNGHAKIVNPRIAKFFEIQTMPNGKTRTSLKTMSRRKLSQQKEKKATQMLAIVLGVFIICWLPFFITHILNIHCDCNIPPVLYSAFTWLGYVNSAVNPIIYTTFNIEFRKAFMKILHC
Briefly: TEST 1: In Vitro Inhibition of DOPAMINE D2 Receptor Binding (3H-Spiroperidol, rat striatum). As to conditions: 3H-Spiroperidol (0.05 nM), rat striatum membranes, 20 min. at 37° C.; read-out: TEST 1 IC50 (concentration inhibiting specific binding by 50%). How it is done: TEST 1: In Vitro Inhibition of DOPAMINE D2 Receptor Binding
Radioactive-labelled ligand ^3 H-Spiroperidol is incubated with isolated cell-membrane fragments at 37° C. for a given period of time. Following completed incubation, the incubate is filtered through GF/B filters which are rinsed following filtration to remove unspecifically adhered radioactivity. As opposed to low-molecular compounds, membrane fragments are not rinsed through the filters, the radioactivity bound to the filters is indicative of the amount of ligand bound specifically as well as nonspecifically to the membranes.
The procedure is performed in ice bath. Polytron kinematica is rinsed with milli-Q--H2 O before and after use. Male Wistar rats, 150-200 g are decapitated, striatum is removed quickly and weighed (approx. 50 mg). Striatum is transferred to a centrifuging vial containing 10 ml ice-cold D2 buffer. Homogenization is performed applying polytron kinematica (homogenizer) setting 6 for 20 sec. The homogenizer is rinsed with 10 ml D2 buffer in another centrifuging vial. The 10 ml rinsing buffer is added to the tissue vial. Centrifugation at 18,000 rpm for 10 min. at 4° C. Final pellet is transferred to 1,000×vol. of same buffer. (Ex. 50 mg striatum in 50 ml D2 buffer). Can be stored at 0° C. for at least 4 hours. Note that the tissue must be monogeneous (uniform) before use. If not, brief homogenization is performed. […]

In another test the target is T2, DOPAMINE D1 Receptor (Rattus norvegicus, UniProt P18901).
T2 construct: Male Wistar rats, 150-200 g are decapitated; Striatum is removed quickly; from tissue; host or cells: rat striatum membrane fragments
T2 sequence (P18901 whole entry, the tested form may be a part): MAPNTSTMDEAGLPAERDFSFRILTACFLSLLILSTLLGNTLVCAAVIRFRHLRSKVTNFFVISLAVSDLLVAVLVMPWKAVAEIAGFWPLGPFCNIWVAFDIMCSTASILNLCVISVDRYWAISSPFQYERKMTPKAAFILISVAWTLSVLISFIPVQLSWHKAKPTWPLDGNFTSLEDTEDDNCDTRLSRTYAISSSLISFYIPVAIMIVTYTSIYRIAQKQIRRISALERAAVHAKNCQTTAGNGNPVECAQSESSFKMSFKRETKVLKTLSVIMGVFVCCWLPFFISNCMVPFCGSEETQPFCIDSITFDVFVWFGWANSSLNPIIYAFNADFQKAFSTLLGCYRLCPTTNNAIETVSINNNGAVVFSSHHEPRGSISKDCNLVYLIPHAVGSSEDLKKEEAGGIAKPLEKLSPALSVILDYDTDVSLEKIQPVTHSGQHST
Briefly: TEST 2: In Vitro Inhibition of DOPAMINE D1 Receptor Binding (3H-SCH 23390, rat striatum). As to conditions: 3H-SCH 23390 (0.2 nM), rat striatum membranes, 60 min. at 30° C.; read-out: TEST 2 IC50 (concentration inhibiting specific binding by 50%). Here is the method:
TEST 2: In Vitro Inhibition of DOPAMINE D1 Receptor Binding
Radioactive-labelled ligand ^3 H-SCH 23390 is incubated with isolated cell-membrane fragments in incubation buffer at 30° C. for a given period of time. Following completed incubation, the incubate is filtered through GF/B filters, which are rinsed following filtration to remove unspecifically adhered radioactivity. As opposed to low-molecular compounds, membrane fragments are not rinsed through the filters, the radioactivity bound to the filters indicates the amount of ligand bound specifically as well as nonspecifically to the membranes.
Male Wistar rats, 150-200 g are decapitated. Striatum is removed quickly, weighed (approx. 50 mg) and carefully homogenized in 100×vol. of buffer I applying glass/teflon homogenizer 10 up/down strokes. Ex.: 50 mg striatum is homogenized in […] buffer I. The homogenate is centrifuged at 18,000 rpm for 20 min. at 4° C., and the supernate is decanted. This step is performed three times, and each time the pellet is resuspended and homogenized in 100×vol. of buffer I. Following the third centrifugation, the pellet is suspended in 100×vol. of resuspension buffer and homogenized. The tissue is now ready for use. The tissue is stable at 0° C. for 8 hours.
200 μl test substance/H2 O/blind (cis-flupentixol 2 μM)
Incubation for 60 min. at 30° C.
10 ml of ice-cold 0.9% NaCl is added to the tubes. […]

For another test, the target named is T3, 5HT2-Receptor (Rattus norvegicus, UniProt P14842).
T3 construct: Male Wistar rats, 150-200 g are decapitated; Frontal cortex is removed quickly; from tissue; host or cells: rat frontal cortex membrane fragments
T3 sequence (P14842 whole entry, the tested form may be a part): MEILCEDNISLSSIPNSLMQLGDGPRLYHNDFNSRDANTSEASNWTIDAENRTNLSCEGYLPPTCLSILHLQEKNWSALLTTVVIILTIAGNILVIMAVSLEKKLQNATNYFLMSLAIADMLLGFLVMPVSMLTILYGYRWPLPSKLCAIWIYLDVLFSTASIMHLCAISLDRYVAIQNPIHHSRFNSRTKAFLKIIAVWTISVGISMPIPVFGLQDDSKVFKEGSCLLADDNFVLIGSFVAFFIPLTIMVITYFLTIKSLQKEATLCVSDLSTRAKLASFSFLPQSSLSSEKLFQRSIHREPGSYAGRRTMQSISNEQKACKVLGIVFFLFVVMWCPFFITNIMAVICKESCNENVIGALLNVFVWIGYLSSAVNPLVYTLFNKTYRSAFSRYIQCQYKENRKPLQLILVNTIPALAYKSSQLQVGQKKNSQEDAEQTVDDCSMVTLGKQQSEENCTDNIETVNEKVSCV
The experiment in a line: TEST 3: In Vitro Inhibition of 5HT2-Receptor Binding (3H-Ketanserine, rat frontal cortex). As to conditions: 3H-Ketanserine (0.4 nM), rat frontal cortex membranes, 15 min. at 37° C.; read-out: TEST 3 IC50 (concentration inhibiting specific binding by 50%). How it is done:
TEST 3: In Vitro Inhibition of 5HT2 -Receptor Binding
Radioactive-labelled ligand ^3 H-Ketanserine is incubated with isolated cell membrane fragments at 37° C. for a given period of time. Following completed incubation, the incubate is filtered through GF/B filters, which are rinsed following filtration to remove unspecifically adhered radioactivity. As opposed to low-molecular compounds, membrane fragments are not rinsed through the filters, the radioactivity bound to the filters indicates the amount of ligand bound specifically as well as nonspecifically to the membranes.
The preparation is made in ice bath. Polytron kinematica is rinsed with milli-Q--H2 O before and after use. Male Wistar rats, 150-200 g are decapitated. Frontal cortex is removed quickly and weighed (approx. 200 mg). Frontal cortex is added to centrifuging vial containing 10 ml ice-cold D2 buffer. Homogenization applying polytron kinematica (homogenizer) setting 6 for 20 sec. The homogenizer is rinsed with 10 ml D2 buffer in another centrifuging vial. The 10 ml rinsing buffer is added to the tissue vial. Centrifuged at 18,000 rpm for 10 min. at 4° C. Final pellet is transferred to 125×vol. of same buffer. (Ex 200 mg in 25 ml D2 buffer). Can be stored for approx. 30 min. at 0° C.
25/μl ^3 H-Ketanserine (0.4 nM)
25/μl test substance/H2 O/blind cyproheptadine (2/μM)
Incubation for 15 min. at 37° C. […]

`CCN(C(=O)OCCCN1CCC(c2noc3cc(F)ccc23)CC1)c1ccc2c(c1)OCO2` [Example 2, 4-(6-Fluoro-1,2-benzisoxazol-3-yl)-1-(3-(N-ethyl-N-(3,4-methylenedioxyphenyl)carbamoyloxy)propylpiperidine, oxalate]: the IC50 on DOPAMINE D2 Receptor is 18 nM; on DOPAMINE D1 Receptor it was 30 nM; at 5HT2-Receptor, 6.7 nM.
On the same counts, the results for `CN(C(=O)OCCCN1CCC(c2noc3cc(F)ccc23)CC1)c1ccccc1` [Example 3, 4-(6-Fluoro-1,2-benzisoxazol-3-yl) -1-(3-(N-methyl-N-phenylcarbamoyloxy)propyl)piperidine, oxalate] are 8.9 nM, 43 nM and 6.9 nM.
